Data as given in patent US20250129120A1, “PEPTIDE HAVING ACTIVITY FOR PREVENTING HAIR LOSS OR PROMOTING HAIR GROWTH, AND USE THEREOF” (CAREGEN CO., LTD., priority 2021, published 2025).

Tests used:
Keratin 14 = experiment: RT-PCR of Keratin 14 expression in HHORSC; assay type: cell-based, human; conditions: peptide 500 nM, and 50 μM, 72 hours, FIG. 6
Experimental: (§1) Specifically, HHORSC (human hair outer root sheath cell, Sciencell, USA) was seeded in a 6-well culture plate at 4×10^5 cells/well and then cultured in MSC complete medium (mesenchymal stem cell complete media) for 24 hours. Next, the medium was replaced with serum free MSC complete medium and cultured again for 24 hours. Then, the HHORSC was treated with the peptide of SEQ ID NO: 1 prepared in the Preparation Example at concentrations of 500 nM, […], and 50 μM, respectively, and cultured at 37° C. for 72 hours. As a positive control, EGF was treated at a concentration of 50 nM, and as a negative control, HHORSC without any treatment was used. After washing with PBS, RNA was isolated by treating with 300 ? of easy blue (intron, Korea). Then, cDNA was synthesized using a cDNA synthesis kit (enzynomics, Korea) by quantification using nano drop, and PCR was performed using primers for Ha3-II, Keratin 14, and Keratin 19 (the base sequences of primer are shown in Table 3 below) and PCR premix (enzynomics, Korea). Electrophoresis was performed on a 1.5% agarose gel, and the mRNAs of Ha3-II, Keratin 14, and Keratin 19 were detected using a band analysis system (Bio-Rad gel image system).

Keratin 19 = experiment: RT-PCR of Keratin 19 expression in HHORSC; assay type: cell-based, human; conditions: peptide 500 nM, and 50 μM, 72 hours, FIG. 6
Experimental: as §1

[1] = system: DKK-1 protein (dickkopf-related protein 1); experiment: Western blotting of DKK-1 protein in DHT-treated HHFDPC; assay type: cell-based, human; conditions: HHFDPC with DHT 100 nM; peptide 500 nM, 5 μM, and 50 μM; 24 hours; vs negative control (DHT only); FIG. 5
Experimental: DKK-1 protein (dickkopf-related protein 1) is a hair loss-related protein known to be highly expressed in individuals with hair loss, especially male pattern hair loss, and its expression is known to be promoted by hormones such as DHT (Dihydrotestosterone). Accordingly, the expression of DKK-1 protein was induced by treating HHFDPC cells with DHT together with the peptide according to the Preparation Example of the present invention, and then the expression level of DKK-1 was measured through Western blotting to determine whether there was an effect of suppressing the expression of DKK-1 protein.
Specifically, HHFDPC as in [Experiment Example 1-1] was seeded in a 6-well culture plate at 4×10^5 cells/well and then cultured in MSC complete medium (mesenchymal stem cell complete media) for 24 hours. Next, the medium was replaced with serum free MSC complete medium and cultured again for 24 hours. In addition, the HHFDPC was treated with the peptide of SEQ ID NO: 1 prepared in Preparation Example at concentrations of 500 nM, 5 μM, and 50 μM, respectively, and at this time, DHT, an expression inducer of DKK-1 protein, was simultaneously treated at a concentration of 100 nM and then cultured at 37° C. for 24 hours. […] After washing again with 0.1% PBS-T (0.1% Tween-20 in PBS) three times for 15 minutes each, DKK-1 protein was detected by treatment with ECL solution (GE Healthcare, USA).

β-catenin = experiment: Western blotting of β-catenin moved to the nucleus in HHFDPC; assay type: cell-based, human; conditions: HHFDPC nuclear protein, peptide 500 nM, 5 μM, and 50 μM, 24 hours, FIG. 3
Experimental: In addition, in addition to p-AKT and p-ERK, in order to confirm the activation of β-catenin, which is known to affect cell proliferation and differentiation, whether β-catenin moved into the nucleus was confirmed through Western blotting. Specifically, the HHFDPC as in [Experiment Example 1-1] was seeded in a 6-well culture plate at an amount of 4×10^5 cells/well, cultured in MSC complete medium (mesenchymal stem cell complete media) for 24 hours. Next, the medium was replaced with serum free MSC complete medium and cultured again for 24 hours. Then, the HHFDPC was treated with the peptide of SEQ ID NO: 1 prepared in the Preparation Example at concentrations of 500 nM, 5 μM, and 50 μM, respectively, and cultured at 37° C. for 24 hours. As a positive control, minoxidil was treated at a concentration of 1 μM, and as a negative control, HHFDPC without any treatment was used. After washing with PBS, proteins in the nucleus were isolated using a nuclear protein extraction kit (Thermo scientific, USA). After electrophoresis using a 10% SDS-PAGE gel, it was transferred to a PVDF membrane and blocked using 5% skim milk at room temperature for 30 minutes. […] After washing again with 0.1% PBS-T (0.1% Tween-20 in PBS) three times for 15 minutes each, β-catenin was detected by treatment with ECL solution (GE Healthcare, USA).

MSX2 = experiment: RT-PCR of MSX2 expression in HHGMC; assay type: cell-based, human; conditions: peptide 500 nM, 5 μM, and 50 μM, 72 hours, FIG. 7
Experimental: Specifically, HHGMC (human hair germinal matrix cell, Sciencell, USA) was seeded in a 6-well culture plate at 4×10^5 cells/well and then cultured in MSC complete medium (mesenchymal stem cell complete media) for 24 hours. Next, the medium was replaced with serum free MSC complete medium and cultured again for 24 hours. Then, the HHGMC was treated with the peptide of SEQ ID NO: 1 prepared in the Preparation Example at concentrations of 500 nM, 5 μM, and 50 μM, respectively, and cultured at 37° C. for 72 hours. As a positive control, EGF was treated at a concentration of 50 nM, and as a negative control, HHGMC without any treatment was used. After washing with PBS, RNA was isolated by treating with 300 ? of easy blue (intron, Korea). Next, cDNA was synthesized using a cDNA synthesis kit (enzynomics, Korea) by quantification using nano drop, and PCR was performed using primers for MSX2 (base sequences of the primer are listed in Table 4 below) and PCR premix (enzynomics, Korea). Electrophoresis was performed on a 1.5% agarose gel, and MSX2 mRNA was detected using a band analysis system (Bio-Rad gel image system).

LEF-1 = experiment: RT-PCR of LEF-1 expression in HHFDPC; assay type: cell-based, human; conditions: peptide 500 nM, 5 μM, and 50 μM, 24 hours, FIG. 4
Experimental: (§2) Furthermore, in order to determine whether the β-catenin moves to the nucleus and is activated to affect proliferation and differentiation, whether the expression of LEF-1, c-Myc and cyclin D1 (cyclin D1), which act as downstream factors, increases with β-catenin activation was confirmed through RT-PCR. Specifically, in the same manner as the previous Western blotting experiment, HHFDPC cells were cultured, treated with the peptides of the Preparation Example of the present invention at concentrations of 500 nM, 5 μM, and 50 μM, respectively, and cultured at 37° C. for 24 hours. After washing the cells with PBS, RNA was isolated by treating them with 300 […] of easy blue (intron, Korea). Then, CDNA was synthesized using a cDNA synthesis kit (enzynomics, Korea) by quantifying it with nano drop, and PCR was performed using primers for LEF-1, c-Myc and cyclin D1 (base sequences of the primer are listed in Table 2 below) and PCR premix (enzynomics, Korea). Electrophoresis was performed on a 1.5% agarose gel, and then the mRNA of LEF-1, c-Myc and cyclin D1 was detected using a band analysis system (Bio-Rad gel image system).

[2] = system: HHFDPC (human hair follicle dermal papilla cells); experiment: MTT proliferation assay in dermal papilla cells; assay type: cell-based; conditions: peptide 500 nM, 5 μM, and 50 μM, 72 hours, vs untreated control, FIG. 1
Experimental: While culturing human hair follicle dermal dermal papilla cells (HHFDPC), the absorbance was measured after treatment with the peptide of the present invention to confirm whether there was an effect of promoting the proliferation of the HHFDPC dermal papilla cells.
Specifically, HHFDPC (Sciencell, USA) was seeded at 4×10^3 cells/well in a 96-well culture plate, cultured in MSC complete medium (mesenchymal stem cell complete media, Sciencell, USA) for 24 hours, and then the medium was replaced with serum free MSC complete medium and cultured for another 24 hours. Then, the HHFDPC was treated with the peptide of SEQ ID NO: 1 prepared in the Preparation Example at concentrations of 500 nM, 5 μM, and 50 μM, respectively, and cultured at 37° C. for 72 hours. As a positive control, minoxidil was treated at a concentration of 1 μM, and as a negative control, HHFDPC without any treatment was used. Then, 10 ? of 5 mg/mL MTT solution was added and cultured in a 37° C. CO2 incubator for 4 hours to stain the cells. After removing the medium, the cells were treated with 100 μl of DMSO and shaken for 10 minutes, and the number of HHFDPC cells was confirmed by measuring absorbance at a wavelength of 540 nm using a spectrophotometer.

c-Myc = experiment: RT-PCR of c-Myc expression in HHFDPC; assay type: cell-based, human; conditions: peptide 500 nM, 5 μM, and 50 μM, 24 hours, FIG. 4
Experimental: as §2

Ha3-II = experiment: RT-PCR of Ha3-II expression in HHORSC; assay type: cell-based, human; conditions: peptide 500 nM, 5 µM, and 50 μM, 72 hours, FIG. 6
Experimental: as §1

cyclin D1 = experiment: RT-PCR of cyclin D1 expression in HHFDPC; assay type: cell-based, human; conditions: peptide 500 nM, 5 μM, and 50 μM, 24 hours, FIG. 4
Experimental: as §2

p-AKT = experiment: Western blotting of phosphorylated AKT in HHFDPC; assay type: cell-based, human; conditions: peptide 500 nM, 5 μM, and 50 µM, 24 hours, FIG. 2
Experimental: (§3) First, phosphorylated forms of AKT and ERK, which act as signaling molecules related to the proliferation of HHFDPC, were confirmed through Western blotting. Specifically, HHFDPC as in [Experiment Example 1-1] above was seeded at 4×10^5 cells/well in a 6-well culture plate, cultured in MSC complete medium (mesenchymal stem cell complete media) for 24 hours, and then the medium was replaced with serum free MSC complete medium and cultured for another 24 hours. Then, the HHFDPC was treated with the peptide of SEQ ID NO: 1 prepared in the Preparation Example at concentrations of 500 nM, 5 μM, and 50 µM, respectively, and cultured at 37° C. for 24 hours. As a positive control, minoxidil was treated at a concentration of 1 μM, and as a negative control, HHFDPC without any treatment was used. Then, Western blotting was performed to detect phosphorylated AKT and phosphorylated ERK. After washing with PBS, the cells were treated with 100 ? of lysis buffer to destroy cells, thereby obtaining cell lysate. After electrophoresis using a 10% SDS-PAGE gel, it was transferred to a PVDF membrane and blocked using 5% skim milk at room temperature for 30 minutes. […] After washing again with 0.1% PBS-T (0.1% Tween-20 in PBS) three times for 15 minutes each, p-AKT and p-ERK were detected by treatment with ECL solution (GE Healthcare, USA).

p-ERK = experiment: Western blotting of phosphorylated ERK in HHFDPC; assay type: cell-based, human; conditions: peptide 500 nM, 5 μM, and 50 µM, 24 hours, FIG. 2
Experimental: as §3

GGVPG [peptide of the present invention]
amount of Keratin 14 mRNA (Keratin 14): increased further compared to the control group that did not receive any treatment | amount of Keratin 19 mRNA (Keratin 19): increased further compared to the control group that did not receive any treatment | amount of DKK-1 protein [1]: reduced | migration of β-catenin to the nucleus (activation of β-catenin) (β-catenin): migration due to activation of β-catenin increased | amount of MSX2 mRNA (MSX2): increased further compared to the untreated control group | amount of LEF-1 mRNA (LEF-1): increased further compared to the control group without any treatment | proliferation of HHFDPC (absorbance at 540 nm, MTT) [2]: promoted depending on the concentration of the treated peptide | amount of c-Myc mRNA (c-Myc): increased further compared to the control group without any treatment | amount of Ha3-II mRNA (Ha3-II): increased further compared to the control group that did not receive any treatment | amount of cyclin D1 mRNA (cyclin D1): increased further compared to the control group without any treatment | phosphorylation of AKT (p-AKT) (p-AKT): increased compared to the control group not treated with the peptide | phosphorylation of ERK (p-ERK) (p-ERK): increased compared to the control group not treated with the peptide
